Read-outs that look alike come from different tables or passages of the source. Starred links: 1 amine or outer side, 2 acyl side, 3 side chain; linkers in the order of their positions; H or OH if unused. Non-standard residues stand in square brackets, D forms with d. Residues, ends and D or L forms follow the SMILES beside them. Groups on a side chain read outwards from the residue. No end group written: not given here. *: point of attachment. C18 diacid = O=C(O)CCCCCCCCCCCCCCCCC(=O)*; αMePhe(2-F) = C[C@](N)(Cc1ccccc1F)C(=O)O; γGlu = O=C(O)[C@H](CCC(=O)[*:2])N[*:1]; αMe4Pal = C[C@](N)(Cc1ccncc1)C(=O)O; αMeY = C[C@](N)(Cc1ccc(O)cc1)C(=O)O; 4Pal = N[C@@H](Cc1ccncc1)C(=O)O; αMeL = CC(C)C[C@](C)(N)C(=O)O; αMeS = C[C@](N)(CO)C(=O)O; Orn = NCCC[C@H](N)C(=O)O; AEEA = NCCOCCOCC(=O)O; Aib = CC(C)(N)C(=O)O
Key:
Format in all cases: cell-based
hGLP-1R [1] = target: T1, hGLP-1R (Homo sapiens, UniProt P43220); assay: Functional cAMP activation in the presence of 0.1% casein (no HSA); conditions: read-out: Relative cAMP EC50, hGLP-1R;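 note: intracellular cAMP rise after 30 min at 37 °C read by HTRF, normalized between buffer only (0%) and maximal control ligand (100%), four-parameter variable-slope fit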
hGIPR [2] = target: T2, hGIPR (Homo sapiens, UniProt P48546); assay: Functional cAMP activity in the presence of 1% HSA; conditions: read-out: cAMP Rel EC50, hGIPR
T2 sequence (P48546 22-466): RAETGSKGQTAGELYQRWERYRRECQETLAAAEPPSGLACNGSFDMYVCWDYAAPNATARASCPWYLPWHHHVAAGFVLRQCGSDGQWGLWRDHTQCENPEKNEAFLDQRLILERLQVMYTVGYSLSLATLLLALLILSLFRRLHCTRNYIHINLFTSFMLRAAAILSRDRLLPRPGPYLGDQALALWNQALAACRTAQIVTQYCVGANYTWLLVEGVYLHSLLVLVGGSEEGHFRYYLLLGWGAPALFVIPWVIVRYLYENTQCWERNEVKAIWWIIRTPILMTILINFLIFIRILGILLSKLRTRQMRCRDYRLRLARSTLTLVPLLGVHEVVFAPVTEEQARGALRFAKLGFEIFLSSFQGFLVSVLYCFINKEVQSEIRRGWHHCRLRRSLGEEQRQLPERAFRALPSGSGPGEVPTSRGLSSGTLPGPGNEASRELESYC

hGIPR [3] = target: T2, hGIPR; assay: Functional cAMP activation in the presence of 0.1% casein (no HSA); conditions: read-out: Relative cAMP EC50, hGIPR;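 note: intracellular cAMP rise after 30 min at 37 °C read by HTRF against a standard curve, scaled between buffer alone (0%) and top control ligand concentration (100%), four-parameter fit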
hGLP-1R [4] = target: T1, hGLP-1R; assay: Functional cAMP activity in the presence of 1% HSA; conditions: read-out: cAMP Rel EC50, hGLP-1R
hGcgR = hGcgR (Homo sapiens, UniProt P47871); assay: Functional cAMP activation in the presence of 0.1% casein (no HSA); conditions: read-out: Relative cAMP EC50, hGcgR;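 note: intracellular cAMP rise after 30 min at 37 °C, read by HTRF against a cAMP standard curve, scaled from buffer only (0%) to maximal control ligand response (100%)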
human GcgR = human GcgR (Homo sapiens, UniProt P47871); assay: Functional cAMP activity in the presence of 1% HSA; conditions: read-out: cAMP Rel EC50, hGcgR
[5] = in the presence of 0.1% casein (no HSA), geometric mean
[6] = 0.1% casein, no HSA, geometric mean
[7] = in the presence of 0.1% casein (no HSA), geometric mean of relative EC50
[8] = HEK-293 clonal cell line, 1% HSA, geometric mean of relative EC50

T1 sequence (P43220 24-463): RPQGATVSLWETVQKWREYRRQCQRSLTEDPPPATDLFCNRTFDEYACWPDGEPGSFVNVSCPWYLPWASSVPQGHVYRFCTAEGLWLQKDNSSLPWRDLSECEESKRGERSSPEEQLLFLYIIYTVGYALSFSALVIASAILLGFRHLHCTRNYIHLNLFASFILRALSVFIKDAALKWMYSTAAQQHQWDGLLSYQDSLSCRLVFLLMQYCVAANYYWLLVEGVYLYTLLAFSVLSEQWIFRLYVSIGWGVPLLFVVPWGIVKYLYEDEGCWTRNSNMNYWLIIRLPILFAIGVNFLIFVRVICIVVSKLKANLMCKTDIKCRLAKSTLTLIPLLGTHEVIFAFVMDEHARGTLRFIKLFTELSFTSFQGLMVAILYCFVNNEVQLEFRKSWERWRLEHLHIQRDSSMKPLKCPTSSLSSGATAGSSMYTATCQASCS
Sequence of hGcgR (P47871 26-477): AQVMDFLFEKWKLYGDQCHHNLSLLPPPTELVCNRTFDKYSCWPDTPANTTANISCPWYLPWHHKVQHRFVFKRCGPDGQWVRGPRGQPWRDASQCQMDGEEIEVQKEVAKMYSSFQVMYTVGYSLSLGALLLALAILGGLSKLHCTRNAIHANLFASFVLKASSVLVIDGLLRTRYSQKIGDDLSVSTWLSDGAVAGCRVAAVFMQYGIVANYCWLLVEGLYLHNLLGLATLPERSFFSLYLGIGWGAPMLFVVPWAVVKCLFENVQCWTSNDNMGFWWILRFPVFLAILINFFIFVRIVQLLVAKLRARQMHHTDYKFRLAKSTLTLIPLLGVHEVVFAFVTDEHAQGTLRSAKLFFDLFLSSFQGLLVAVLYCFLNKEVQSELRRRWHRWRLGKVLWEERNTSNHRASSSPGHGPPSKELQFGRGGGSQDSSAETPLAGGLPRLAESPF
Sequence of human GcgR (P47871 26-477): as above

EC50 (hGLP-1R [1])	EC50 (hGIPR [3])	EC50 (hGcgR)	Compound	EC50 (hGIPR [2])	EC50 (hGLP-1R [4])	EC50 (human GcgR)	EC50 (hGLP-1R [1]; [5])	EC50 (hGIPR [3]; [5])	EC50 (hGcgR; [5])	further results
0.347 nM	0.0448 nM	5.29 nM	CC[C@H](C)[C@H](NC(=O)[C@H](CC(C)C)NC(=O)[C@H](Cc1ccc(O)cc1)NC(=O)[C@@H](CCC(=O)O)NC(=O)[C@@H](NC(=O)[C@H](Cc1ccccc1)NC(=O)[C@H](CCCN)NC(=O)C(C)(C)NC(=O)[C@H](CCC(N)=O)NC(=O)[C@H](C)NC(=O)[C@H](CCCCNC(=O)COCCOCCNC(=O)CC[C@H](NC(=O)CCCCCCCCCCCCCCCCC(=O)O)C(=O)O)NC(=O)[C@H](CCCN)NC(=O)[C@H](CC(=O)O)NC(=O)[C@H](CC(C)C)NC(=O)[C@](C)(CC(C)C)NC(=O)[C@@H](NC(=O)[C@](C)(CO)NC(=O)[C@H](Cc1ccncc1)NC(=O)[C@H](CC(=O)O)NC(=O)[C@H](CO)NC(=O)[C@@H](NC(=O)[C@](C)(Cc1ccccc1F)NC(=O)[C@@H](NC(=O)CNC(=O)[C@H](CCC(N)=O)NC(=O)C(C)(C)NC(=O)[C@@H](N)Cc1ccc(O)cc1)[C@@H](C)O)[C@@H](C)O)[C@@H](C)CC)[C@@H](C)CC)C(=O)N[C@@H](CCC(=O)O)C(=O)NCC(=O)NCC(=O)N1CCC[C@H]1C(=O)N[C@@H](CO)C(=O)N[C@@H](CO)C(=O)NCC(=O)N[C@@H](CCC(=O)O)C(=O)N1CCC[C@H]1C(=O)N1CCC[C@H]1C(=O)N1CCC[C@H]1C(=O)N[C@@H](CCC(=O)O)C(N)=O [Example 458] (H-Y[Aib]QGT[αMePhe(2-F)]TSD[4Pal][αMeS]I[αMeL]LD[Orn]K([AEEA-γGlu-C18 diacid])AQ[Aib][Orn]FI[dE]YLIEGGPSSGEPPPE-NH2)	8.07 nM	22.7 nM	319 nM				
			CC[C@H](C)[C@H](NC(=O)[C@H](Cc1ccccc1)NC(=O)[C@H](C)NC(=O)C(C)(C)NC(=O)[C@H](CCC(N)=O)NC(=O)[C@H](C)NC(=O)[C@H](CCCCNC(=O)COCCOCCNC(=O)CC[C@H](NC(=O)CCCCCCCCCCCCCCCCC(=O)O)C(=O)O)NC(=O)[C@H](CCCCN)NC(=O)[C@H](CC(=O)O)NC(=O)[C@H](CC(C)C)NC(=O)[C@](C)(CC(C)C)NC(=O)[C@H](CCC(N)=O)NC(=O)[C@H](CO)NC(=O)[C@H](Cc1ccncc1)NC(=O)[C@H](CC(=O)O)NC(=O)[C@H](CO)NC(=O)[C@@H](NC(=O)[C@H](Cc1ccccc1)NC(=O)[C@@H](NC(=O)CNC(=O)[C@H](CCC(N)=O)NC(=O)C(C)(C)NC(=O)[C@@H](N)Cc1ccc(O)cc1)[C@@H](C)O)[C@@H](C)O)C(=O)N[C@@H](CCC(=O)O)C(=O)N[C@@H](Cc1ccc(O)cc1)C(=O)N[C@@H](CC(C)C)C(=O)N[C@@H](CC(C)C)C(=O)N[C@@H](CCC(=O)O)C(=O)N[C@H](C)C(=O)NCC(=O)N1CCC[C@H]1C(=O)N[C@@H](CO)C(=O)N[C@@H](CO)C(=O)NCC(=O)N[C@@H](C)C(=O)N1CCC[C@H]1C(=O)N1CCC[C@H]1C(=O)N1CCC[C@H]1C(=O)N[C@@H](CO)C(=O)NCC(=O)N[C@H](C(N)=O)[C@@H](C)O [Example 821]	26.1 nM	362 nM	989 nM	2.79 nM	0.152 nM	6.74 nM	
			H-Y[Aib]QGTFTSD[4Pal]SQ[αMeL]LDKK([AEEA-γGlu-C18 diacid])AQ[αMe4Pal]AFIEYLIE[Aib]GPSSGAPPPSSS-NH2 [Example 848]	20.2 nM	313 nM	615 nM	2.29 nM	0.148 nM	3.22 nM	
1.16 nM	0.0291 nM	8.53 nM	H-Y[Aib]QGT[αMePhe(2-F)]TSD[4Pal]SI[αMeL]LDKK([γGlu-γGlu-C18 diacid])AQ[Aib]AFIEYLEEGGPSSGEPPPSGEGE-NH2 [Example 625]	1.81 nM	72.1 nM	657 nM				
			Y[Aib]QGT[αMePhe(2-F)]TSD[4Pal][αMeS]I[αMeL]LD[Orn]K([AEEA-γGlu-C18 diacid])AQ[αMe4Pal]EFI[dE][αMeY]LIEGGPPS[Aib][Orn]PPPSGSE-NH2 [Example 1198]	0.67 nM	61 nM	314 nM				EC50 (hGLP-1R [1]; [6]): 0.475 nM; EC50 (hGIPR [3]; [6]): 0.00663 nM; EC50 (hGcgR; [6]): 1.8 nM
			H-Y[Aib]QGTFTSD[4Pal]SQ[αMeL]LDKK([Glu-γGlu-Glu-C18 diacid])AQ[αMe4Pal]AFIEYLIE[Aib]GPSSGAPPPSGS-NH2 [Example 896]	16.8 nM	535 nM	1110 nM	4.64 nM	0.12 nM	10.6 nM	
			CC[C@H](C)[C@H](NC(=O)[C@H](CC(C)C)NC(=O)[C@](C)(Cc1ccc(O)cc1)NC(=O)[C@@H](CCC(=O)O)NC(=O)[C@@H](NC(=O)[C@H](Cc1ccccc1)NC(=O)[C@H](CCC(=O)O)NC(=O)[C@](C)(Cc1ccncc1)NC(=O)[C@H](CCC(N)=O)NC(=O)[C@H](C)NC(=O)[C@H](CCCCNC(=O)COCCOCCNC(=O)COCCOCCNC(=O)CC[C@H](NC(=O)CCCCCCCCCCCCCCCCC(=O)O)C(=O)O)NC(=O)[C@H](CCCN)NC(=O)[C@H](CC(=O)O)NC(=O)[C@H](CC(C)C)NC(=O)[C@](C)(CC(C)C)NC(=O)[C@@H](NC(=O)[C@](C)(CO)NC(=O)[C@H](Cc1ccncc1)NC(=O)[C@H](CC(=O)O)NC(=O)[C@H](CO)NC(=O)[C@@H](NC(=O)[C@](C)(Cc1ccccc1F)NC(=O)[C@@H](NC(=O)CNC(=O)[C@H](CCC(N)=O)NC(=O)C(C)(C)NC(=O)[C@@H](N)Cc1ccc(O)cc1)[C@@H](C)O)[C@@H](C)O)[C@@H](C)CC)[C@@H](C)CC)C(=O)N[C@@H](CCC(=O)O)C(=O)NCC(=O)NCC(=O)N1CCC[C@H]1C(=O)N[C@@H](CO)C(=O)N[C@@H](CO)C(=O)NCC(=O)N[C@@H](C)C(=O)N1CCC[C@H]1C(=O)N1CCC[C@H]1C(=O)N1CCC[C@H]1C(=O)N[C@@H](CO)C(=O)NCC(=O)N[C@@H](CO)C(N)=O [Example 1207]	0.633 nM	39.8 nM	470 nM				EC50 (hGLP-1R [1]; [6]): 0.299 nM; EC50 (hGIPR [3]; [6]): 0.00647 nM; EC50 (hGcgR; [6]): 7.71 nM
			Y[Aib]QGT[αMePhe(2-F)]TSD[4Pal]SI[αMeL]LD[Orn]K([AEEA-γGlu-C18 diacid])AQ[αMe4Pal][Orn]FI[dE][αMeY]LIEGGPSSGEPPPEGEG[dE]-NH2 [Example 692]							EC50 (hGLP-1R [1]; [7]): 0.252 nM; EC50 (hGIPR [2]; [8]): 1.25 nM; EC50 (hGIPR [3]; [7]): 0.0106 nM; EC50 (hGLP-1R [4]; [8]): 25.2 nM; EC50 (hGcgR; [7]): 2.14 nM; EC50 (human GcgR; [8]): 380 nM

Compound	EC50 (hGLP-1R [1])	EC50 (hGIPR [3])	EC50 (hGcgR)	EC50 (hGIPR [2])	EC50 (hGLP-1R [4])	EC50 (human GcgR)	EC50 (hGLP-1R [1]; [5])	EC50 (hGIPR [3]; [5])	EC50 (hGcgR; [5])	further results
CC[C@H](C)[C@H](NC(=O)[C@H](Cc1ccccc1)NC(=O)[C@H](C)NC(=O)C(C)(C)NC(=O)[C@H](CCC(N)=O)NC(=O)[C@H](C)NC(=O)[C@H](CCCCNC(=O)CC[C@H](NC(=O)CC[C@H](NC(=O)CCCCCCCCCCCCCCCCC(=O)O)C(=O)O)C(=O)O)NC(=O)[C@H](CCCCN)NC(=O)[C@H](CC(=O)O)NC(=O)[C@H](CC(C)C)NC(=O)[C@H](CC(C)C)NC(=O)[C@@H](NC(=O)[C@H](CO)NC(=O)[C@H](Cc1ccc(O)cc1)NC(=O)[C@H](CC(=O)O)NC(=O)[C@H](CO)NC(=O)[C@@H](NC(=O)[C@](C)(Cc1ccccc1F)NC(=O)[C@@H](NC(=O)CNC(=O)[C@H](CCC(N)=O)NC(=O)C(C)(C)NC(=O)[C@@H](N)Cc1ccc(O)cc1)[C@@H](C)O)[C@@H](C)O)[C@@H](C)CC)C(=O)N[C@@H](CCC(=O)O)C(=O)N[C@@H](Cc1ccc(O)cc1)C(=O)N[C@@H](CC(C)C)C(=O)N[C@@H](CCC(=O)O)C(=O)N[C@@H](CCC(=O)O)C(=O)NCC(=O)NCC(=O)N1CCC[C@H]1C(=O)N[C@@H](CO)C(=O)N[C@@H](CO)C(=O)NCC(=O)N[C@@H](C)C(=O)N1CCC[C@H]1C(=O)N1CCC[C@H]1C(=O)N1CCC[C@H]1C(=O)N[C@@H](CO)C(N)=O [Example 406] (H-Y[Aib]QGT[αMePhe(2-F)]TSDYSILLDKK([γGlu-γGlu-C18 diacid])AQ[Aib]AFIEYLEEGGPSSGAPPPS-NH2)	0.208 nM	0.0233 nM	1.23 nM	10.5 nM	27.8 nM	254 nM				
